In PubChem BioAssay (NCI):
Where “and” joins values, the source holds several entries; their conditions need not be identical. Identical values can stand only once.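 Dose response: 5 concentrations. Exposure: 48 h. Format: 96-well plates. Endpoint: linear interpolation; highest concentration if not reached. GI50: concentration for 50% inhibition of growth. TGI: concentration producing complete growth inhibition.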 Where a SMILES comes first, the peptide text is derived from it. [ ]: non-standard residue; d: D form. The star is where a group is joined. ξ: configuration not given here. X16 = COC1=CC(=O)N(C(=O)C(O*)C(C)C)C1Cc1ccccc1; ξNMe2Val = CC(C)C(C(=O)*)N(C)C; NMeV = CN[CH](C(=O)O)C(C)C

What was measured:
Assay in all cases: inhibition of tumour cell growth, NCI panel, 48 h
OVCAR-4 ovarian = system: OVCAR-4 ovarian
SF-539 CNS = system: SF-539 CNS
PC-3 prostate = system: PC-3 prostate
HT29 colon = system: HT29 colon
UACC-257 melanoma = system: UACC-257 melanoma
NCI-H23 lung = system: NCI-H23 lung
COLO 205 colon = system: COLO 205 colon
UACC-62 melanoma = system: UACC-62 melanoma
NCI-H522 lung = system: NCI-H522 lung
HCT-15 colon = system: HCT-15 colon

Row | Compound | TGI (OVCAR-4 ovarian) | TGI (SF-539 CNS) | TGI (PC-3 prostate) | TGI (HT29 colon) | TGI (UACC-257 melanoma) | TGI (NCI-H23 lung) | TGI (COLO 205 colon) | TGI (UACC-62 melanoma) | TGI (NCI-H522 lung) | TGI (HCT-15 colon) | GI50 (OVCAR-4 ovarian) | GI50 (SF-539 CNS) | GI50 (NCI-H23 lung) | GI50 (COLO 205 colon) | GI50 (UACC-62 melanoma) | GI50 (HCT-15 colon)
1 | Nc1c(Br)cc(-c2cc(Br)c(N)c(Br)c2)cc1Br | > 100 µM | > 100 µM | > 100 µM | > 100 µM | > 100 µM | > 100 µM | > 100 µM | > 100 µM | > 100 µM | – | – | – | – | – | – | –
2 | COC(=O)C(=O)C(C(=O)C(=O)Nc1ccccc1C(=O)OC)c1nc2ccc(C(=O)c3ccccc3)cc2[nH]c1=O (configuration not stated) | 88.8 µM | > 100 µM | > 100 µM | > 100 µM | > 100 µM | > 100 µM | – | > 100 µM | > 100 µM | > 100 µM | – | – | – | – | – | –
3 | CC1=C/C(=C(\c2ccc(N(C)C)cc2)c2ccc([N+](C)(C)C)cc2)C=CC1=[N+](C)C | 32.9 µM | 34.6 µM | – | 77.9 µM | 27.9 µM | 26.6 µM | 85.4 µM | 19.3 µM | 31.2 µM | > 100 µM | – | – | – | – | – | –
4 | COc1ccc(-n2c(CCCC(=O)O)nc3c2C(=O)c2ccccc2C3=O)cc1 | > 100 µM | > 100 µM | – | – | > 100 µM | > 100 µM | > 100 µM | > 100 µM | > 100 µM | > 100 µM | – | – | – | – | – | –
5 | C1=C2SSC3=CC=C(SSc4ccc(s4)SSC4=CC=C(SSC(=C1)S2)S4)S3 | > 100 µM | – | > 100 µM | > 100 µM | > 100 µM | > 100 µM | > 100 µM | – | > 100 µM | > 100 µM | – | – | – | – | – | –
6 | CC(C)(C)C1CC[C@H]2c3c([nH]c4ccc(Br)cc34)[C@H]3C(=O)N(c4ccccc4)C(=O)[C@H]3[C@H]2C1 (some centres not stated) | 33.3 µM | – | – | > 100 µM | > 100 µM | > 100 µM | 44.2 µM | 87.4 µM | 69.3 µM | – | – | – | – | – | – | –
7 | c1ccc2[nH]c(-c3nc4ccccc4o3)nc2c1 | > 100 µM | > 100 µM | – | > 100 µM | > 100 µM | > 100 µM | > 100 µM | – | > 100 µM | > 100 µM | – | – | – | – | – | –
8 | C=C(NC(=O)C(=C)NC(=O)c1csc(C2=NC3c4csc(n4)C4NC(=O)c5csc(n5)C(C(C)(O)C(C)O)NC(=O)C5CSC(=N5)/C(=C/C)NC(=O)C(C(C)O)NC(=O)c5csc(n5)C3(CC2)NC(=O)C(C)NC(=O)C(=C)NC(=O)C(=C)NC(=O)C(C(C)C)NC2C=Cc3c(C(C)O)cc(nc3C2O)C(=O)OC4C)n1)C(N)=O (configuration not stated) | > 83.5 µM | – | > 100 µM | 16 µM | 18.7 µM | > 62.6 µM | > 100 µM | 4.15 µM | 0.322 µM | > 63.4 µM | – | – | – | – | – | –
9 | COC1=CC(=O)N(C(=O)C(OC(=O)C2CCCN2C(=O)C2CCCN2C(=O)C(C(C)C)N(C)C(=O)C(NC(=O)C(C(C)C)N(C)C)C(C)C)C(C)C)C1Cc1ccccc1 (configuration not stated) (ξNMe2Val-V[NMeV]PP-X16; configuration not given here) | > 4 µM | 0.00516 µM and 0.0481 µM | – | 0.0066 µM | – | 0.0145 µM | 0.00838 µM and 0.0415 µM | > 4 µM | 0.00182 µM | 0.431 µM | 0.663 µM | < 0.0004 µM | < 0.0004 µM | < 0.0004 µM | < 0.0004 µM | < 0.0004 µM
10 | CN(C)[C@@H]1C(=O)C(C(N)=O)=C(O)[C@@]2(O)C(=O)C3=C(O)c4c(O)cccc4C[C@H]3C[C@@H]12 | 3.26 µM | 3.84 µM | – | – | – | 4.27 µM | 3.25 µM | 3.14 µM | 4.29 µM | 22 µM | – | – | – | – | – | –
11 | CS(=O)(=O)NNS(=O)(=O)c1ccc(Br)cc1 | > 100 µM | > 100 µM | – | > 100 µM | > 100 µM | > 100 µM | > 100 µM | > 100 µM | > 100 µM | > 100 µM | – | – | – | – | – | –
